Laboratory results reported in ChEMBL document CHEMBL1129830, “A convenient synthesis of pseudoceratidine and three analogs for biological evaluation” (1997).
Converted amounts (≈) assume the structure as drawn.

What was measured:
Assay type in all cases: functional
Escherichia coli = experiment: Compound was evaluated for minimal inhibitory concentration against Escherichia coli
Pseudomonas aeruginosa [1] = experiment: Compound was evaluated for minimal inhibitory concentration against Pseudomonas aeruginosa
Serratia liquefaciens [2] = experiment: Compound was evaluated for minimal inhibitory concentration against Serratia liquefaciens
Staphylococcus aureus = experiment: Compound was evaluated for minimal inhibitory concentration against Staphylococcus aureus
Listeria monocytogenes = experiment: Compound was evaluated for minimal inhibitory concentration against Listeria monocytogenes
Serratia liquefaciens [3] = experiment: Compound was evaluated for minimal inhibitory concentration against Serratia liquefaciens; Growth delayed by concentrations >= 100 ug/ml
Pseudomonas aeruginosa [4] = experiment: Compound was evaluated for minimal inhibitory concentration against Pseudomonas aeruginosa; Growth delayed by concentrations >= 50 ug/ml and almost totally inhibited by 500 ug/ml
Serratia liquefaciens [5] = experiment: Compound was evaluated for minimal inhibitory concentration against Serratia liquefaciens; Growth delayed by concentrations >= 50 ug/ml and almost totally inhibited by 500 ug/ml

SMILES | MIC (Escherichia coli) [µg/mL] | MIC (Pseudomonas aeruginosa [1]) [µg/mL] | MIC (Serratia liquefaciens [2]) [µg/mL] | MIC (Staphylococcus aureus) [µg/mL] | MIC (Listeria monocytogenes) [µg/mL] | MIC (Serratia liquefaciens [3]) [µg/mL] | MIC (Pseudomonas aeruginosa [4]) [µg/mL] | MIC (Serratia liquefaciens [5]) [µg/mL]
O=C(NCCCCNCCCNC(=O)c1cc(Br)c[nH]1)c1cc(Br)c[nH]1 | 250 (≈ 511 µM) | > 500 | > 500 | 100 (≈ 204 µM) | 250 (≈ 511 µM) |  |  | 
O=C(NCCCNCCCNC(=O)c1cc(Br)c(Br)[nH]1)c1cc(Br)c(Br)[nH]1 | 50 (≈ 79 µM) | 100 (≈ 158 µM) |  | 10 (≈ 15.8 µM) | 10 (≈ 15.8 µM) | > 500 |  | 
O=C(NCCNCCNCCNC(=O)c1cc(Br)c(Br)[nH]1)c1cc(Br)c(Br)[nH]1 | 100 (≈ 154 µM) |  |  | 50 (≈ 77.2 µM) | 50 (≈ 77.2 µM) |  | > 500 | > 500
O=C(NCCCCNCCCNC(=O)c1cc(Br)c(Br)[nH]1)c1cc(Br)c(Br)[nH]1 | 50 (≈ 77.3 µM) | 250 (≈ 386 µM) | > 500 | 5 (≈ 7.73 µM) | 5 (≈ 7.73 µM) |  |  | 
